Source: patent US7759373B2, “Large conductance calcium-activated K channel opener” (Mitsubishi Tanabe Pharma Corporation, priority 2001, dated 2010)

The compounds below were run on rhythmic bladder contractions induced by substance P (assay: Inhibitory effect on the rhythmic bladder contractions induced by substance P in anesthetized rats). Details: time during which frequency of rhythmic contraction was completely inhibited, 0.25 mg/kg of the compound, substance P infusion.
Assay type: in vivo, rat
Experimental: Inhibitory effect on the rhythmic bladder contractions induced by substance P in anesthetized rats
For the experiments, Sprague-Dawley female rats (9 to 12 weeks old) weighing between 200 to 300 g were used. After urethane anesthetization (subcutaneously administered with a dose of 1.2 g/kg), cannulae were placed in both right and left femoral veins. One intravenous catheter was used for administration of compounds, and the other was for the substance P (0.33 μg/kg/min) infusion. We also cannulated into ureter to pass urine. Polyethylene catheters were inserted into carotid artery for continuous monitoring of arterial blood pressure and heart rate. For continuous infusion, transurethral bladder catheter was inserted into the bladder through the urethra and tied in place by a ligature around the urethral orifice. One end of the catheter was attached to a pressure transducer in order to measure intravesical pressure. The other end of the catheter was used for infusion of saline into the bladder. After stabilization of blood pressure and heart rate and after the bladder was emptied, cystometry was performed by filling the bladder slowly with about 0.6 ml of saline. After about 10 minutes, intravenous infusion of substance P (0.33 μg/kg/min) was started for stabilization of the micturition reflex. Compounds were administered after stable rhythmic bladder contraction was obtained over 15 minutes. All compounds were dissolved or suspended in saline containing 0.5% Tween 80 for intravenous administration (0.1 ml/kg).
A 100% inhibition time (minute) of the selected compounds of the present invention is shown in the following Table 65 with a rank of A, B or C. These ranges are as mentioned below. A≧20>B≧10>C (minute)

SMILES | 100% inhibition time range
CCc1[nH]c(-c2ccc(F)cc2)nc1C(=O)c1ccccn1 [Preparation example 72, 5-ethyl-2-(4-fluorophenyl)-imidazol-4-yl-(2-pyridyl) ketone] | C (A≧20>B≧10>C (minute))
CCc1nc(-c2ccc(C#N)cc2)[nH]c1-c1ccccc1 [Preparation example 27] | B (A≧20>B≧10>C (minute))
CN(C)c1ccc(-c2nc(-c3ccc(Cl)s3)c(CC(=O)O)s2)cc1 [Preparation Example 589] | A (A≧20>B≧10>C (minute))
O=C(O)Cc1nc(-c2ccc(F)cc2)oc1-c1ccccc1O [Preparation Example 237] | C (A≧20>B≧10>C (minute))
CCc1nc(-c2ccc(F)cc2)[nH]c1-c1ccc(C)nc1 [Preparation example 47] | B (A≧20>B≧10>C (minute))
O=C(O)Cc1nc(-c2cscn2)oc1-c1ccc(Cl)s1 [Preparation Example 274] | B (A≧20>B≧10>C (minute))
CCOC(=O)Cc1nc(-c2ccc(F)cc2)oc1-c1ccccc1 [Preparation Example 296, ethyl 2-(4-fluoro-phenyl)-5-phenyloxazol-4-yl acetate] | C (A≧20>B≧10>C (minute))
CN(C)c1ccc(-c2nc(CC(=O)O)c(-c3cccs3)o2)cn1 [Preparation Example 259] | B (A≧20>B≧10>C (minute))
O=C(O)Cc1nc(-c2ccc(CO)cc2)oc1-c1ccc(Cl)s1 [Preparation Example 436] | C (A≧20>B≧10>C (minute))
CN(C)c1ncc(-c2nc(-c3cccs3)c(CC(=O)O)s2)cn1 [Preparation Example 580] | C (A≧20>B≧10>C (minute))
CCOC(=O)Cc1nc(-c2ccc(N(C)C)nc2)oc1-c1cccs1 [Preparation Example 331] | A (A≧20>B≧10>C (minute))
COc1cccc(-c2nc(CC(=O)O)c(-c3cccs3)o2)c1 [Preparation Example 263] | C (A≧20>B≧10>C (minute))
NC(=O)Cc1nc(-c2ccc(F)cc2)oc1-c1ccsc1 [Preparation Example 615] | B (A≧20>B≧10>C (minute))
Cc1cc(-c2nc(CC(=O)O)c(-c3ccc(Cl)cc3)o2)sc1C [Preparation Example 474] | C (A≧20>B≧10>C (minute))
CN(C)c1ncc(-c2nc(CC(=O)O)c(-c3ccc(Cl)s3)s2)cn1 [Preparation Example 611] | B (A≧20>B≧10>C (minute))
O=C(O)Cc1nc(-c2ccc3c(c2)CCCO3)oc1-c1ccsc1 [Preparation Example 443] | C (A≧20>B≧10>C (minute))
COc1cc(-c2oc(-c3ccc(F)cc3)nc2CC(=O)O)ccc1O [Preparation Example 293] | C (A≧20>B≧10>C (minute))
CCc1nc(-c2ccc(C)nc2)[nH]c1-c1ccccc1 [Preparation example 28] | B (A≧20>B≧10>C (minute))
O=C(O)Cc1nc(-c2ccc3nccn3c2)oc1-c1ccc(Cl)s1 [Preparation Example 630] | C (A≧20>B≧10>C (minute))
COc1ccc(-c2nc(-c3ccc(Cl)s3)c(CC(=O)O)o2)cc1 [Preparation Example 516] | B (A≧20>B≧10>C (minute))
CCc1c(-c2cccnc2)nc(-c2ccc(F)cc2)n1C.Cl.Cl [Preparation example 102, 5-ethyl-2-(4-fluoro-phenyl)-1-methyl-4-(3-pyridyl)imidazole dihydrochloride] | C (A≧20>B≧10>C (minute))
O=C(O)Cc1nc(-c2ccc(Cl)cc2)oc1-c1ccco1 [Preparation Example 201] | C (A≧20>B≧10>C (minute))

SMILES | 100% inhibition time range
CN(C)c1ncc(-c2nc(-c3cccs3)c(CC(=O)O)o2)cn1 [Preparation Example 505] | B (A≧20>B≧10>C (minute))
O=C(O)Cc1nc(-c2cc3ccccc3cn2)oc1-c1cccs1 [Preparation Example 276] | C (A≧20>B≧10>C (minute))
CS(=O)(=O)Nc1nc(-c2ccc(F)cc2)oc1-c1ccc(Cl)c(F)c1.[Na] [Preparation Example 348, 5-(4-chloro-3-fluorophenyl)-2-(4-fluorophenyl)oxazol-4-yl methanesulfonamide sodium salt] | C (A≧20>B≧10>C (minute))
O=C(O)Cc1nc(-c2ccc(F)cc2)oc1-c1cccc(F)c1 [Preparation Example 236] | C (A≧20>B≧10>C (minute))
COc1ccc(-c2nc(-c3ccc(Cl)s3)c(CC(=O)O)s2)cn1 [Preparation Example 591] | B (A≧20>B≧10>C (minute))
O=C(O)Cc1nc(-c2ccc(F)cc2)oc1-c1cccs1 [Preparation Example 614] | C (A≧20>B≧10>C (minute))
C[S+]([O-])Cc1nc(-c2ccc(C#N)cc2)[nH]c1-c1ccccc1 (centres unmarked) [Preparation example 137] | C (A≧20>B≧10>C (minute))
CS(=O)(=O)NC(=O)Cc1nc(-c2ccc(F)cc2)oc1-c1ccsc1.[Na] [Preparation Example 370, N-[2-(4-fluorophenyl)-5-(3-thienyl)oxazol-4-ylacetyl]methanesulfonamide sodium salt] | C (A≧20>B≧10>C (minute))
CC(C)c1ccc(-c2nc(CC(=O)O)c(-c3cccs3)o2)cc1 [Preparation Example 291] | C (A≧20>B≧10>C (minute))
CCSc1ccc(-c2nc(CC(=O)O)c(-c3ccc(Cl)s3)o2)cc1 [Preparation Example 449] | B (A≧20>B≧10>C (minute))
CSc1cccc(-c2nc(CC(=O)O)c(-c3ccc(Cl)s3)o2)c1 [Preparation Example 457] | B (A≧20>B≧10>C (minute))
COCc1nc(-c2ccc(C#N)cc2)[nH]c1-c1cccnc1 [Preparation example 125] | C (A≧20>B≧10>C (minute))
Clc1cc(-c2ncc(-c3cccnc3)[nH]2)cs1 [Preparation example 24] | C (A≧20>B≧10>C (minute))
OCc1nc(-c2ccc(Cl)cc2)[nH]c1-c1ccccc1 [Preparation Example 176] | C (A≧20>B≧10>C (minute))
CCc1nc(-c2ccc(C)nc2)[nH]c1-c1cncs1 [Preparation example 83] | B (A≧20>B≧10>C (minute))
COc1ccc(-c2oc(-c3ccc(F)cc3)nc2CC(=O)O)cc1OC [Preparation Example 160] | C (A≧20>B≧10>C (minute))
NC(C(=O)O)c1nc(-c2ccc(F)cc2)oc1-c1ccc(Cl)s1 (centres unmarked) [Preparation Example 627] | C (A≧20>B≧10>C (minute))
O=C(O)Cc1sc(-c2ccc(F)cc2)nc1-c1cccs1 [Preparation Example 577] | B (A≧20>B≧10>C (minute))
CCN(CC)C(=O)Cc1nc(-c2ccc(F)cc2)oc1-c1ccsc1 [Preparation Example 617] | B (A≧20>B≧10>C (minute))
O=C(O)Cc1sc(-c2ccc(Cl)cc2)nc1-c1ccc(Cl)s1 [Preparation Example 588] | C (A≧20>B≧10>C (minute))
N#CCCc1nc(-c2ccc(F)cc2)oc1-c1cccs1 [Preparation Example 337, 4-(2-cyanoethyl)-2-(4-fluorophenyl)-5-(2-thienyl)oxazole] | C (A≧20>B≧10>C (minute))
O=C(O)Cc1nc(-c2ccc(Cl)cc2)oc1-c1cccnc1 [Preparation example 142] | C (A≧20>B≧10>C (minute))
